Like-named read-outs stand apart in the source and are kept apart here.
How the values were obtained:
Get3 (S. cerevisiae) [1] = biological target: Get3 (S. cerevisiae) (Saccharomyces cerevisiae, UniProt Q12154, D57N); experiment: NADH-coupled microplate ATPase assay; assay type: biochemical; settings: Tris pH 7.5, 5 mM MgCl2, 20 mM NaCl, 30 °C, 2 μM Get3, 0.02% n-dodecyl-β-D-maltopyranoside
Get3 (S. cerevisiae) [2] = biological target: T1, Get3 (S. cerevisiae) (Saccharomyces cerevisiae, UniProt Q12154); experiment: NADH-coupled microplate ATPase assay; assay type: biochemical; settings: Tris pH 7.5, 5 mM MgCl2, 20 mM NaCl, 30 °C, 2 μM Get3, 0.02% n-dodecyl-β-D-maltopyranoside
T1 sequence (Q12154 1-354): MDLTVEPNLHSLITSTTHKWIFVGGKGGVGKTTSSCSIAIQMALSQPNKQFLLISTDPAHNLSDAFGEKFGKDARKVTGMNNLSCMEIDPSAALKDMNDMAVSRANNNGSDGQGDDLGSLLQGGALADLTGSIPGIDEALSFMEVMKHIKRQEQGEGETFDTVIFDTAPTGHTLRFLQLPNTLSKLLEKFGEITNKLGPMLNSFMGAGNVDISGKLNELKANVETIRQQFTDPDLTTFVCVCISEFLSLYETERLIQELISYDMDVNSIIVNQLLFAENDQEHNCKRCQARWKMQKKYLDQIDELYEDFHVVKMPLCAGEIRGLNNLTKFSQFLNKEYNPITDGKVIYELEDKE

crystal structure [3] = biological target: the molecule itself; experiment: crystal structure
crystal structure [4] = biological target: the molecule itself; experiment: crystal structure; remark: listed apart in the source

Get3 (S. cerevisiae) (Saccharomyces cerevisiae, UniProt Q12154, D57N), sequence (Q12154 whole entry D57N): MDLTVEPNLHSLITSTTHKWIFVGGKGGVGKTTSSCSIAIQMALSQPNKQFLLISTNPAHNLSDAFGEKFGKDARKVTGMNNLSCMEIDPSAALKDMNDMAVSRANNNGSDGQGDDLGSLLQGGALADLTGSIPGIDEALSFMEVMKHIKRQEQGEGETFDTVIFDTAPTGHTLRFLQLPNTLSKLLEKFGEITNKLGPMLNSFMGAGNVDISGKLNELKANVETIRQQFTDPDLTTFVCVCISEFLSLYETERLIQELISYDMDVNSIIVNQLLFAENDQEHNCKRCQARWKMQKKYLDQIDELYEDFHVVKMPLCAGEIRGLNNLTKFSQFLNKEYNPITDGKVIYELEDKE

Nc1ncnc2c1ncn2[C@@H]1O[C@H](COP(=O)(O)OP(=O)(O)OP(=O)(O)O)[C@@H](O)[C@H]1O [ATP]
NADH-coupled microplate ATPase assay (Get3 (S. cerevisiae) [1]): an Asp57Asn mutant is defective for ATP hydrolysis | apparent Km,ATP (Get3 (S. cerevisiae) [2]): used to calculate Vmax and apparent Km,ATP values

B1: Schizosaccharomyces pombe Get3 (natural protein, S. pombe, UniProt Q9P7F8 1-329, looked up)
chain: MSFDPLPGTLENLLEQTSLKWIFVGGKGGVGKTTTSCSLAIQMSKVRSSVLLISTDPAHNLSDAFGTKFGKDARKVPGFDNLSAMEIDPNLSIQEMTEQADQQNPNNPLSGMMQDLAFTIPGIDEALAFAEILKQIKSMEFDCVIFDTAPTGHTLRFLNFPTVLEKALGKLGGLSSRFGPMINQMGSIMGVNANEQDLFGKMESMRANISEVNKQFKNPDLTTFVCVCISEFLSLYETERMIQELTSYEIDTHNIVVNQLLLDPNTTCPQCMARRKMQQKYLAQIEELYEDFHVVKVPQVPAEVRGTEALKSFSEMLVKPYVYPTSGKE
stoichiometry N (crystal structure [3]): 2

B2: Saccharomyces cerevisiae Get3 (wild type) (natural protein, S. cerevisiae, UniProt Q12154 1-354, looked up)
chain: MDLTVEPNLHSLITSTTHKWIFVGGKGGVGKTTSSCSIAIQMALSQPNKQFLLISTDPAHNLSDAFGEKFGKDARKVTGMNNLSCMEIDPSAALKDMNDMAVSRANNNGSDGQGDDLGSLLQGGALADLTGSIPGIDEALSFMEVMKHIKRQEQGEGETFDTVIFDTAPTGHTLRFLQLPNTLSKLLEKFGEITNKLGPMLNSFMGAGNVDISGKLNELKANVETIRQQFTDPDLTTFVCVCISEFLSLYETERLIQELISYDMDVNSIIVNQLLFAENDQEHNCKRCQARWKMQKKYLDQIDELYEDFHVVKMPLCAGEIRGLNNLTKFSQFLNKEYNPITDGKVIYELEDKE
stoichiometry N (crystal structure [4]): 2
